The subject of data set [1] is Rattus norvegicus. As to the kind of experiment: Analgesic activity in STZ-induced diabetic neuropathy rat model assessed as prolongation of reversal of hypersensitivity time at 3 mg/kg, iv measured after 15 to 90 mins relative to vehicle-treated control. The class given is functional.
Data set [2] concerns Rattus norvegicus. As to the kind of experiment: Analgesic activity in rat assessed reduction formalin-induced initial pain response at 10 mg/kg, iv administered 2 mins before formalin challenge. More on the design: dose 10 mg/kg. The class given is functional, organism-based.
Data set [3] is described as follows: Drug uptake in Sprague-Dawley rat brain at 1 mg/kg, iv measured after 1 hr. The class given is ADME, organism-based. Set-up: dose 1 mg/kg, route intravenous. Particulars: read-out: Drug uptake.
In data set [4] the test system is Rattus norvegicus. Briefly: Toxicity in Sprague-Dawley rat assessed as […] at 10 mg/kg, iv after 10 mins by rotorod test. Format: organism-based. More on the design: dose 10 mg/kg, route intravenous. To be noted: in vivo. On the technique in general: Falling from the rotarod earlier than controls is read as motor impairment.
In data set [5] the test system is Rattus norvegicus. Briefly: Analgesic activity in Sprague-Dawley rat L5/L6 spinal nerve injury Chung model of neuropathic pain assessed as […] hair-induced paw withdrawal threshold at 10 mg/kg, iv measured after 15 mins relative to vehicle-treated control. Format: functional, organism-based. More on the design: dose 10 mg/kg.
In data set [6] the test system is Rattus norvegicus. As to the kind of experiment: Analgesic activity in Sprague-Dawley rat L5/L6 spinal nerve injury Chung model of neuropathic pain assessed as […] hair-induced paw withdrawal threshold at 3 mg/kg, iv measured after 15 to 90 mins relative to vehicle-treated control. The class given is functional, organism-based. Set-up: dose 3 mg/kg.

The target in data set [7] is Potassium voltage-gated channel subfamily KQT member 2 (Mus musculus) (UniProt Q9Z351). As to the kind of experiment: Induction of mouse KCNQ2 expressed in HEK293 cells at -40 mV holding potential by whole-cell patch clamp assay relative to retigabine. The class given is cell-based. In general terms: Patch clamp records ionic current or voltage across a cell membrane.

The target of data set [8] is Potassium voltage-gated channel subfamily KQT member 2 (Mus musculus, UniProt Q9Z351). Briefly: Induction of mouse KCNQ2 expressed in HEK293 cells at -40 mV holding potential by whole-cell patch clamp assay. Format: cell-based.
Data set [9] can be described thus: Drug uptake in Sprague-Dawley rat brain at 1 mg/kg, iv measured after 15 mins. Format: ADME, organism-based. Set-up: dose 1 mg/kg, route intravenous. To be noted: read-out: Drug uptake.
In data set [10] the test system is Rattus norvegicus. As to the kind of experiment: Analgesic activity in rat assessed reduction formalin-induced second phase pain response at 10 mg/kg, iv administered 8 mins post formalin challenge. The class given is functional, organism-based. More on the design: dose 10 mg/kg.
For data set [11], the target named is Potassium voltage-gated channel subfamily KQT member 2 (Mus musculus) (UniProt Q9Z351). Briefly: Induction of mouse KCNQ2 expressed in HEK293 cells at -40 mV holding potential by whole-cell patch clamp assay relative to (+/-)-N-(1-(benzo[d][1,3]dioxol-5-yl)ethyl)-3-(2-chlorophenyl)acrylamide. The class given is cell-based.
The test system of data set [12] is Rattus norvegicus. Briefly: Analgesic activity in Sprague-Dawley rat L5/L6 spinal nerve injury Chung model of neuropathic pain assessed as […] hair-induced paw withdrawal threshold at 100 mg/kg, iv measured after 15 to 90 mins relative to vehicle-treated control. Format: functional, organism-based. More on the design: dose 100 mg/kg.
Data set [13] has as its system Rattus norvegicus. Briefly: Analgesic activity in rat assessed reduction formalin-induced second phase pain response at 100 mg/kg, iv administered 8 mins post formalin challenge. The class given is functional, organism-based. More on the design: dose 100 mg/kg.
Data set [14] concerns Rattus norvegicus. As to the kind of experiment: Analgesic activity in rat assessed reduction formalin-induced initial pain response at 100 mg/kg, iv administered 2 mins before formalin challenge. The class given is functional, organism-based. More on the design: dose 100 mg/kg.

The record followed here is ChEMBL document CHEMBL2439980, “Discovery of (S,E)-3-(2-fluorophenyl)-N-(1-(3-(pyridin-3-yloxy)phenyl)ethyl)-acrylamide as a potent and efficacious KCNQ2 (Kv7.2) opener for the treatment of neuropathic pain” (Bioorg Med Chem Lett, 2013).

Calls of active or inactive are those of the source.

Broadly, the EC50 is the concentration giving half of the maximal effect. Read a high EC50 as lower potency in that assay.

Potassium voltage-gated channel subfamily KQT member 2 (Mus musculus), sequence (Q9Z351 whole entry): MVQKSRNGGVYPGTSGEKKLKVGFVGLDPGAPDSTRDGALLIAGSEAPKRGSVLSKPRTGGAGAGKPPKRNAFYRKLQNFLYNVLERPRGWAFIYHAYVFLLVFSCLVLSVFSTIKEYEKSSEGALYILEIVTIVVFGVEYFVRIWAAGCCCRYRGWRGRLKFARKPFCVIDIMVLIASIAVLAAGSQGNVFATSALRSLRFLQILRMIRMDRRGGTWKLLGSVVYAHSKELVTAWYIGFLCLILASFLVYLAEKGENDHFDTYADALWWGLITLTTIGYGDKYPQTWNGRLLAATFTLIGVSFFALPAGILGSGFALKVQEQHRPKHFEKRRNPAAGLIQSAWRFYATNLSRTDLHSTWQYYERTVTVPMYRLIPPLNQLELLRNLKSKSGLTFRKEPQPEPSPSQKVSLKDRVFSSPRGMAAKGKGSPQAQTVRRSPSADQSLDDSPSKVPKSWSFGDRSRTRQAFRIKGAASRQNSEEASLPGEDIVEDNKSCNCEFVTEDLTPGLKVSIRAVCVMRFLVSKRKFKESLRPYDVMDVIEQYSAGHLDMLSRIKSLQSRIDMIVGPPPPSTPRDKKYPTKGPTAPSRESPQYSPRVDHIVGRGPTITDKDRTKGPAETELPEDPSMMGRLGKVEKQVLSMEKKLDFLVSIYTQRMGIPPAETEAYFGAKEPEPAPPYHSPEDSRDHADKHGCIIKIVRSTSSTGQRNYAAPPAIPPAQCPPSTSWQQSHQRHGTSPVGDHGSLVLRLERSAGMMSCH
Potassium voltage-gated channel subfamily KQT member 2, sequence (Q9Z351 whole entry): as above

On to `C[C@H](NC(=O)/C=C/c1ccccc1F)c1cccc(Oc2cccnc2)c1`, for which the Time in the data set on Rattus norvegicus [1] was 15 min. Further, the outcome in the data set with Rattus norvegicus [2], in the data set with Rattus norvegicus [5] and in the data set with Rattus norvegicus [10] was Active. Also, the concentration at 1 h in data set [3] came to 0.56 µM. In addition, in the data set with Rattus norvegicus [4], the Activity entry is given as “Non-toxic”. Also, the outcome with Rattus norvegicus [6] was inactive. Moreover, the Efficacy in [7] worked out at 38%. Further, in data set [8], the response was half-maximal at 2.4 nM (EC50). Further, the concentration at 0.25 h in data set [9] worked out at 2 µM. The Ratio in data set [11] is 2.2.
Consider `CCOC(=O)Nc1ccc(NCc2ccc(F)cc2)cc1N`, for which, in data set [11], the Ratio worked out at 1.6.
Take `C[C@H](NC(=O)/C=C/c1cc(F)ccc1F)c1cccc(Oc2ccncc2)c1`: the concentration at 1 h in data set [3] was 0.042 µM. For the same molecule, the result with Rattus norvegicus [5] was Active. Also, the EC50 in [8] was 0.9 nM. The concentration at 0.25 h in data set [9] was 0.16 µM. Besides, the Ratio in data set [11] came to 2.9.
Take `C[C@H](NC(=O)/C=C/c1ccccc1)c1cccc(N2CCOCC2)c1`: the Ratio in [11] stood at 1.4.
The same measure, in the same setting: then `C[C@H](NC(=O)/C=C/c1ccccc1F)c1cccc(-c2ccc(F)nc2)c1`, with 0.85.
On the same count and under the same terms, then `C[C@H](NC(=O)/C=C/c1ccccc1F)c1ccc2c(c1)N(CC1CC1)CCO2`, with 1.8.
The molecule `C[C@@H](NC(=O)/C=C/c1cc(F)ccc1F)c1cccc(Oc2ccncc2)c1` gave an EC50 in data set [8] of more than 10000 nM.
As for `C[C@@H](NC(=O)/C=C/c1ccccc1F)c1cccc(Oc2cccnc2)c1`, in [8], the EC50 is more than 10000 nM.
On to `C[C@H](NC(=O)/C=C/c1ccccc1Cl)c1ccc2c(c1)OCO2`, for which the Ratio in [11] was 1.1.
With `NCC1(CC(=O)O)CCCCC1`, the outcome in the data set on Rattus norvegicus [12] and in the data set with Rattus norvegicus [13] was Active. In the data set on Rattus norvegicus [14], the result was inactive.
